Molecular target: T1, human Nav1.8 (hNav1.8) ion channel (Homo sapiens, UniProt Q9Y5Y9)
T1 construct: expressed in transfected cells; host or cells: HEK293
Test: Nav1.8 channel inhibition, estimated IC50 (one or more of: fluorescence inhibition assay, PatchXpress, IonFlux HT automated patch clamp)
Type: cell-based
Settings: HEK293 cells stably expressing hNav1.8; method used per compound not stated; read-out: Activity range (estimated IC50)
How it was run: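 HEK293 cells stably expressing hNav1.8 with β1/β2 subunits; IC50 from the fluorescence assay and/or automated whole-cell patch clamp (PatchXpress, IonFlux HT). Fluorescence: ANG-2 Na dye, 5 min compound preincubation (0.02–5 μM, 1% DMSO) with 30 μM ouabain, stimulation by 10 μM deltamethrin, peak signal fit logistically. PatchXpress: holding potential reset to Vhalf, inhibition normalized to control/washout currents.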

T1 sequence (Q9Y5Y9 whole entry): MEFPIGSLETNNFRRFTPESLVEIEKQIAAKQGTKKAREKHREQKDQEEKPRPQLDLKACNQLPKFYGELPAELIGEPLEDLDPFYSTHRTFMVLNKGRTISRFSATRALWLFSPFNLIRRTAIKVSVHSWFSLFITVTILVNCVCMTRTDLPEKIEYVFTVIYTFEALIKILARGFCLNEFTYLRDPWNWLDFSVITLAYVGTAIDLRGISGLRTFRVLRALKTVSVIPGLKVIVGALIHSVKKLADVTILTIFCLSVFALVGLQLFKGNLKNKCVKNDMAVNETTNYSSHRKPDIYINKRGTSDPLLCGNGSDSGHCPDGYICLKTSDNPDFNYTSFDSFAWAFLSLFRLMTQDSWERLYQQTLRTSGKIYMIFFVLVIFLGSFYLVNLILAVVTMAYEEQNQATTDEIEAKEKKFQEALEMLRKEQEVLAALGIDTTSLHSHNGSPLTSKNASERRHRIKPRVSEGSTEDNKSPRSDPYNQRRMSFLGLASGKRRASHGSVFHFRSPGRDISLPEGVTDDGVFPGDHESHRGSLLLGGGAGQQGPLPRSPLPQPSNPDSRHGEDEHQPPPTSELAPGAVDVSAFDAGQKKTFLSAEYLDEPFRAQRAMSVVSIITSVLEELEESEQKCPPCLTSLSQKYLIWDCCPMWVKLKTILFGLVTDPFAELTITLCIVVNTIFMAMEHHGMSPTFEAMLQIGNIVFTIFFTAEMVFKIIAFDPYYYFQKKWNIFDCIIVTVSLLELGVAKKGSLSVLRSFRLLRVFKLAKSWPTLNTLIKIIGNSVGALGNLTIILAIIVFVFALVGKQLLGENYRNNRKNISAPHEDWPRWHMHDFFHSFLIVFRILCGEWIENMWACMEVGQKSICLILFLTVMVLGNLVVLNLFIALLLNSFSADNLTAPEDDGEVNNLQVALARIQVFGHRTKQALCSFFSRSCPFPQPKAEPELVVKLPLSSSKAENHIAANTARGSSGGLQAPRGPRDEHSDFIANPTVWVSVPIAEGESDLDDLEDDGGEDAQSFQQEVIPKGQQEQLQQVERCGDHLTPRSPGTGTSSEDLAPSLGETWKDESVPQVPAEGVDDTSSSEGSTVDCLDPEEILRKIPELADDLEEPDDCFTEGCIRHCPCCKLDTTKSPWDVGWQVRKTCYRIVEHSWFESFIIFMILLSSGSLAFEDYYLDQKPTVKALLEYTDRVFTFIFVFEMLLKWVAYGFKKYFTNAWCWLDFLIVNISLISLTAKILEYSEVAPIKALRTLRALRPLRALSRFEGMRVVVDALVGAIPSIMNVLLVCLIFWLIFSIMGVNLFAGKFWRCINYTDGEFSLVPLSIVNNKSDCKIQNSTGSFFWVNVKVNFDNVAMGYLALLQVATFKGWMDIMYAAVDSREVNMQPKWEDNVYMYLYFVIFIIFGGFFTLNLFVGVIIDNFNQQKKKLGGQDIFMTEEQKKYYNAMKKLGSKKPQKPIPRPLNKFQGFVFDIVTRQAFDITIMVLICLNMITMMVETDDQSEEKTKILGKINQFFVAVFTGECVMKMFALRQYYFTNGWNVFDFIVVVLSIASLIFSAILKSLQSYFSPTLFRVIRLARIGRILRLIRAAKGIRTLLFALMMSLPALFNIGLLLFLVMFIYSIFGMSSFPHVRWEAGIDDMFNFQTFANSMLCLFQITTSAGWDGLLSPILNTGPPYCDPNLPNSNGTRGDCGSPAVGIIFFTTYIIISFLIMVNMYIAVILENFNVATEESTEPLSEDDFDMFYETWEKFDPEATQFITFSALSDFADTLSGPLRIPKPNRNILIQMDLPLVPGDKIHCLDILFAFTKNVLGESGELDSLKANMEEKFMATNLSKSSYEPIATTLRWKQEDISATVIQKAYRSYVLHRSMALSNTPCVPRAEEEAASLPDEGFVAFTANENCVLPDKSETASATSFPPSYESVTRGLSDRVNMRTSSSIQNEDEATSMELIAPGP

SMILES | IC50 [nM]
O=C(Nc1ccc[n+]([O-])c1)c1cnc(C(F)(F)F)cc1Oc1ccc(OC(F)F)cc1 [Example 86, 4-[4-(difluoromethoxy)phenoxy]-N-(1-oxidopyridin-1-ium-3-yl)-6-(trifluoromethyl)pyridine-3-carboxamide] | 500 to 1000
O=C(Nc1ccc[n+]([O-])c1)c1cc(C(F)(F)F)cnc1Oc1ccc(F)cc1F [Example 135, 2-(2,4-difluorophenoxy)-N-(1-oxidopyridin-1-ium-3-yl)-5-(trifluoromethyl)pyridine-3-carboxamide] | > 1000
CN=S(C)(=O)c1cccc(NC(=O)c2cc(C(F)(F)F)cnc2Oc2ccc(F)cc2F)c1 (stereo not shown) [Example 175, 2-(2,4-difluorophenoxy)-N-[3-(N,S-dimethylsulfonimidoyl)phenyl]-5(trifluoromethyl)pyridine-3-carboxamide] | < 500
CS(=O)(=O)c1cccc(NC(=O)c2cc(C(F)(F)F)cnc2Oc2cccc(F)c2)c1 [Example 42, 2-(3-fluorophenoxy)-N-(3-methylsulfonyl-phenyl)-5-(trifluoromethyl)pyridine-3-carboxamide] | 500 to 1000
COc1cc(F)ccc1Oc1ncc(C(F)(F)F)cc1C(=O)Nc1cccc(S(=O)(=O)N(C)C)c1 [Example 10, N-[3-(dimethylsulfamoyl)phenyl]-2-(4-fluoro-2-methoxy-phenoxy)-5-(trifluoromethyl)pyridine-3-carboxamide] | < 500
CS(=O)(=O)c1cccc(NC(=O)c2cc(C(F)(F)F)cnc2Oc2ccc(OC(F)F)cc2)c1 [Example 39, 2-[4-(difluoromethoxy)phenoxy]-N-(3-methylsulfonyl-phenyl)-5-(trifluoromethyl)pyridine-3-carboxamide] | < 500
COc1ccc(Oc2cc(C(F)(F)F)ncc2C(=O)Nc2ccc[n+]([O-])c2)c(OC)c1 [Example 88, 4-(2,4-dimethoxyphenoxy)-N-(1-oxidopyridin-1-ium-3-yl)-6-(trifluoromethyl)pyridine-3-carboxamide] | < 500
Cc1cc(F)ccc1Oc1ncc(C(F)(F)F)cc1C(=O)Nc1cc[nH]c(=O)c1 [Example 110, 2-(4-fluoro-2-methyl-phenoxy)-N-(2-oxo-1H-pyridin-4-yl)-5-(trifluoromethyl)pyridine-3-carboxamide] | > 1000
COc1ccc(Oc2cc(C(F)(F)F)ncc2C(=O)Nc2cccc(S(C)(=N)=O)c2)c(OC)c1 (stereo not shown) [Example 102, 4-(2,4-dimethoxyphenoxy)-N-[3-(methylsulfonimidoyl)phenyl]-6-(trifluoromethyl)pyridine-3-carboxamide] | > 1000
COc1cc(F)ccc1Oc1ncc(C(F)(F)F)cc1C(=O)Nc1cccc(C#N)c1 [Example 3, N-(3-cyanophenyl)-2-(4-fluoro-2-methoxy-phenoxy)-5-(trifluoromethyl)pyridine-3-carboxamide] | < 500
CS(=O)(=O)c1cccc(NC(=O)c2cc(C(F)(F)F)cnc2Oc2cccc3scnc23)c1 [Example 58, 2-(1,3-benzothiazol-4-yloxy)-N-(3-methylsulfonyl-phenyl)-5-(trifluoromethyl)pyridine-3-carboxamide] | > 1000
COc1cc(F)ccc1Oc1ncc(C(F)(F)F)cc1C(=O)Nc1cccc(N2CCOCC2)c1 [Example 2, 2-(4-fluoro-2-methoxy-phenoxy)-N-(3-morpholinophenyl)-5-(trifluoromethyl)pyridine-3-carboxamide] | > 1000
COc1cc(Cl)ccc1Oc1ncc(C(F)(F)F)cc1C(=O)Nc1cccc(S(C)(=O)=O)c1 [Example 26, 2-(4-chloro-2-methoxy-phenoxy)-N-(3-methylsulfonylphenyl)-5-(trifluoromethyl)pyridine-3-carboxamide] | < 500
Cc1ccc(Oc2ncc(C(F)(F)F)cc2C(=O)Nc2cccc(S(C)(=O)=O)c2)cc1 [Example 44, 2-(4-methylphenoxy)-N-(3-methylsulfonyl-phenyl)-5-(trifluoromethyl)pyridine-3-carboxamide] | > 1000
CC(C)c1ccccc1Oc1ncc(C(F)(F)F)cc1C(=O)Nc1cccc(S(C)(=O)=O)c1 [Example 46, 2-(2-isopropylphenoxy)-N-(3-methylsulfonyl-phenyl)-5-(trifluoromethyl)pyridine-3-carboxamide] | < 500
COc1cc(F)ccc1Oc1cc(C(F)(F)F)ncc1C(=O)Nc1cccc(S(C)(=O)=O)c1 [Example 67, 4-(4-fluoro-2-methoxy-phenoxy)-N-(3-methylsulfonylphenyl)-6-(trifluoromethyl)pyridine-3-carboxamide] | < 500
CN=S(C)(=O)c1cccc(NC(=O)c2cnc(C(F)(F)F)cc2Oc2ccc(F)cc2OC)c1 (stereo not shown) [Example 70, N-[3-(N,S-dimethylsulfonimidoyl)phenyl]-4-(4-fluoro-2-methoxy-phenoxy)-6-(trifluoromethyl)pyridine-3-carboxamide] | < 500
O=C(Nc1ccc[n+]([O-])c1)c1cc(C(F)(F)F)cnc1Oc1ccc(OC(F)F)cc1 [Example 136, 3-(2-(4-(difluoromethoxy)phenoxy)-5-(trifluoromethyl)nicotinamido)pyridine 1-oxide] | < 500
COc1cc(F)ccc1Oc1cc(C(F)(F)F)ncc1C(=O)Nc1ccnnc1 [Example 71, 4-(4-fluoro-2-methoxy-phenoxy)-N-pyridazin-4-yl-6-(trifluoromethyl)pyridine-3-carboxamide] | < 500
CS(=O)(=O)c1cccc(NC(=O)c2cc(C(F)(F)F)cnc2Oc2cc(Cl)cc(Cl)c2)c1 [Example 56, 2-(3,5-dichlorophenoxy)-N-(3-methylsulfonyl-phenyl)-5-(trifluoromethyl)pyridine-3-carboxamide] | > 1000
COc1cc(F)ccc1Oc1nc(C)ccc1C(=O)Nc1cccc(S(C)(=O)=O)c1 [Example 117, 2-(4-fluoro-2-methoxy-phenoxy)-6-methyl-N-(3-methylsulfonylphenyl)pyridine-3-carboxamide] | > 1000
COc1ccc(Oc2ncc(C(F)(F)F)cc2C(=O)Nc2cccc(S(C)(=O)=O)c2)c(OC)c1 [Example 54, 2-(2,4-dimethoxyphenoxy)-N-(3-methylsulfonyl-phenyl)-5-(trifluoromethyl)pyridine-3-carboxamide] | < 500

Second part, the compound after the results:

IC50 [nM] | SMILES
500 to 1000 | Cn1nccc1NC(=O)c1cc(C(F)(F)F)cnc1Oc1ccc(OC(F)(F)F)cc1Cl [Example 167, 2-[2-chloro-4-(trifluoromethoxy)phenoxy]-N-(2-methylpyrazol-3-yl)-5-(trifluoromethyl)pyridine-3-carboxamide]
< 500 | O=C(Nc1ccc(F)c(F)c1)c1cc(C(F)(F)F)cnc1Oc1ccc(OC(F)(F)F)cc1Cl [Example 155, 2-[2-chloro-4-(trifluoromethoxy)phenoxy]-N-(3,4-difluorophenyl)-5-(trifluoromethyl)pyridine-3-carboxamide]
< 500 | C[S+]([O-])c1cccc(NC(=O)c2cc(C(F)(F)F)cnc2Oc2ccc(OC(F)(F)F)cc2)c1 (stereo not shown) [Example 121, N-(3-methylsulfinylphenyl)-2-[4-(trifluoromethoxy)phenoxy]-5-(trifluoromethyl)pyridine-3-carboxamide]
> 1000 | COc1cc(NC(=O)c2cc(C(F)(F)F)cnc2Oc2ccc(F)cc2OC)ccn1 [Example 15, 2-(4-fluoro-2-methoxy-phenoxy)-N-(2-methoxy-4-pyridyl)-5-(trifluoromethyl)pyridine-3-carboxamide]
500 to 1000 | O=C(Nc1cncnc1)c1cc(C(F)(F)F)cnc1Oc1ccc(OC(F)(F)F)cc1Cl [Example 157, 2-[2-chloro-4-(trifluoromethoxy)phenoxy]-N-pyrimidin-5-yl-5-(trifluoromethyl)pyridine-3-carboxamide]
< 500 | CS(=N)(=O)c1cccc(NC(=O)c2cc(C(F)(F)F)cnc2Oc2ccc(OC(F)(F)F)cc2)c1 (stereo not shown) [Example 123, N-[3-(methylsulfonimidoyl)phenyl]-2-[4-(trifluoromethoxy)phenoxy]-5-(trifluoromethyl)pyridine-3-carboxamide]
< 500 | C[S+]([O-])c1cccc(NC(=O)c2cnc(C(F)(F)F)cc2Oc2ccc(OC(F)(F)F)cc2Cl)c1 (stereo not shown) [Example 75, 4-[2-chloro-4-(trifluoromethoxy)phenoxy]-N-(3-methylsulfinylphenyl)-6-(trifluoromethyl)pyridine-3-carboxamide]
< 500 | CS(=O)(=O)c1cccc(NC(=O)c2cc(C(F)(F)F)cnc2Oc2ccc(OC(F)(F)F)cc2)c1 [Example 38, N-(3-methylsulfonyl-phenyl)-2-[4-(trifluoromethoxy)phenoxy]-5-(trifluoromethyl)pyridine-3-carboxamide]
< 500 | O=C(Nc1cccnc1)c1cnc(C(F)(F)F)cc1Oc1ccc(OC(F)(F)F)cc1Cl [Example 78, 4-[2-chloro-4-(trifluoromethoxy)phenoxy]-N-(3-pyridyl)-6-(trifluoromethyl)pyridine-3-carboxamide]
< 500 | CS(=O)(=O)c1cccc(NC(=O)c2cc(C(F)(F)F)cnc2Oc2ccccc2C(F)(F)F)c1 [Example 53, N-(3-methylsulfonyl-phenyl)-5-(trifluoromethyl)-2-[2-(trifluoromethyl)phenoxy]pyridine-3-carboxamide]
> 1000 | CN(C)c1cc(NC(=O)c2cnc(C(F)(F)F)cc2Oc2ccc(OC(F)(F)F)cc2Cl)ccn1 [Example 73, 4-[2-chloro-4-(trifluoromethoxy)phenoxy]-N-[2-(dimethylamino)-4-pyridyl]-6-(trifluoromethyl)pyridine-3-carboxamide]
> 1000 | CC(=O)c1cccc(NC(=O)c2cc(C(F)(F)F)cnc2Oc2ccc(OC(F)(F)F)cc2Cl)c1 [Example 149, N-(3-acetylphenyl)-2-[2-chloro-4-(trifluoromethoxy)phenoxy]-5-(trifluoromethyl)pyridine-3-carboxamide]
